The structures appear in SMILES notation.

This data set can be described thus: release (dissolution) of clarithromycin from tablets at aging / stability testing. Format: physicochemical. The note with it: for change of tablet dissolution at aging: clarithromycin particle size over 200 μm. The text has this:
By comparing the profiles it has been established that the release rate of a high dosage active substance being poorly soluble in an aqueous medium from a formulation changes with aging, which is even more expressed in the conditions of an accelerated stability assay.
Thus recrystallization is kept at the lowest possible level. In the case of micronizing clarithromycin with large particles also the particle porosity and brittleness are reduced. Micronized clarithromycin can either be already the product of a basic synthesis process or it may be micronized later from clarithromycin with large particles.

For `CC[C@H]1OC(=O)[C@H](C)[C@@H](O[C@H]2C[C@@](C)(OC)[C@@H](O)[C@H](C)O2)[C@H](C)[C@@H](O[C@@H]2O[C@H](C)C[C@H](N(C)C)[C@H]2O)[C@](C)(OC)C[C@@H](C)C(=O)[C@H](C)[C@@H](O)[C@]1(C)O` [clarithromycin], the “changes in the release rate” value (particle size d(0.9) up to about 30 μm at the most, humidified with a minimum amount of water) is “minimized”. Further, the “change of tablet dissolution at aging” value is “noticeably decreases” (tablets made by aqueous granulation) and “noticeably increases” (tablets made by direct tabletting).

For the origin of these results see patent US20060083759A1, “Stabilization of the profile of release of active substances from a formulation” (priority 2002, published 2006).
